Test results reported in ChEMBL document CHEMBL2346511, “Advances in the discovery of kinesin spindle protein (Eg5) inhibitors as antitumor agents” (Eur J Med Chem, 2013).
Each block holds one compound with its values, some of them ahead of it.

Key:
[1] = target: T1, Kinesin-like protein KIF11 (Homo sapiens) (UniProt P52732); assay: Ratio of monastrol IC50 to compound IC50 for Eg5 (unknown origin)
T1 sequence (whole entry): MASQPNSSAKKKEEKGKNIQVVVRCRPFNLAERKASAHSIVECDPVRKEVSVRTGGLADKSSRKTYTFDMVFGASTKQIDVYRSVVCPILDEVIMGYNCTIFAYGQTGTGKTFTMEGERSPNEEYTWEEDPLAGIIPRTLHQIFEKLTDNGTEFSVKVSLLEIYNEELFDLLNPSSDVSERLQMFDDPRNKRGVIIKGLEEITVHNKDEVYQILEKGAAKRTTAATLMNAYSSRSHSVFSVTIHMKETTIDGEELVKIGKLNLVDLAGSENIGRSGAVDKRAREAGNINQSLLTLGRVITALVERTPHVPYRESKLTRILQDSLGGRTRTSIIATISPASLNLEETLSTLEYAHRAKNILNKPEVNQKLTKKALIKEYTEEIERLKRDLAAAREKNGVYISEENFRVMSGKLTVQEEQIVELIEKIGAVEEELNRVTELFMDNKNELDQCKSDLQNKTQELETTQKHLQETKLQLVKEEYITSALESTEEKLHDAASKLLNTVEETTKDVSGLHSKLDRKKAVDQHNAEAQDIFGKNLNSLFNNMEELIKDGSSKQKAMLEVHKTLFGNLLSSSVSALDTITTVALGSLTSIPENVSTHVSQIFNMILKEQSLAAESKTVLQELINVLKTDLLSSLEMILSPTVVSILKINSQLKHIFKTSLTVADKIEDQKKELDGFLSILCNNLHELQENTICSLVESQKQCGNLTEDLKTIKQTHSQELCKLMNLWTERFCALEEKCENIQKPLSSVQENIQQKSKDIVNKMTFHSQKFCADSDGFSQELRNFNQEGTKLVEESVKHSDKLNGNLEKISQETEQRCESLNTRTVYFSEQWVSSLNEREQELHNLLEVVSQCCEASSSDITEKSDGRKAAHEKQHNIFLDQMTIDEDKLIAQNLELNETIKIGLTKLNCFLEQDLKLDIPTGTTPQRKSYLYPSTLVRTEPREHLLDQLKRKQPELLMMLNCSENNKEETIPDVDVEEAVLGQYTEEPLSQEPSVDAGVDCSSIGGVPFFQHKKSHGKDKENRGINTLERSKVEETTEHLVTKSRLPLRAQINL

[2] = target: T2, Kinesin-like protein KIF11 (Homo sapiens, UniProt P52732); assay: Inhibition of human recombinant Eg5 ATPase activity expressed in Escherichia coli after 30 mins by malachite green-based spectrophotometric analysis
T2 sequence (P52732 whole entry): T1 sequence (whole entry)

[3] = target: T2, Kinesin-like protein KIF11; assay: Inhibition of Eg5 (unknown origin)
[4] = Antiproliferative activity against human NCI60 cells
[5] = Half life in cancer patient at 30 mg, iv administered as infusion for 1 hr on days 1, 8 and 15 measured after 28 days; conditions: human, in vivo
clinical = conditions: human, in vivo, iv, 16 mg/day
Description: Half life in acute myeloid leukemia patient at 16 mg/day administered as infusion for 1 hr on 3 consecutive days measured after 2 weeks

Homo sapiens [6] = assay: Toxicity in acute myeloid leukemia patient administered as infusion for 1 hr on 3 consecutive days measured after 2 weeks; format: organism-based; conditions: in vivo, iv, 336 h
Homo sapiens [7] = assay: Toxicity in iv dosed cancer patient administered as infusion for 1 hr on days 1, 8 and 15 measured after 28 days; format: organism-based; conditions: in vivo, 672 h
[8] = target: T2, Kinesin-like protein KIF11; assay: Inhibition of human Eg5 basal ATPase activity
[9] = target: T2, Kinesin-like protein KIF11; assay: Inhibition of human Eg5 assessed as inhibition of microtubule-induced ATPase activity
Homo sapiens [10] = assay: Toxicity in cancer patient administered as infusion for 1 hr every 21 days; format: organism-based; conditions: in vivo, iv
[11] = target: T2, Kinesin-like protein KIF11; assay: Inhibition of Eg5 in human HCT116 cells assessed as inhibition of microtubule-induced ATPase activity after 18 hrs; format: cell-based, HCT-116
Homo sapiens [12] = assay: Toxicity in breast cancer patient administered as infusion for 1 hr on day 1 and 15 measured after 28 days; format: organism-based; conditions: in vivo, iv, 672 h
Homo sapiens [13] = assay: Toxicity in prostate cancer patient administered once every 3 weeks; format: organism-based, Prostate gland; conditions: in vivo, 504 h
[14] = Half life in solid tumor patient at 7 mg/m2 administered as infusion for 1 hr per week for 3 weeks; format: ADME, organism-based; conditions: human, in vivo, iv
[15] = Antitumor activity against breast cancer in patients at 12 mg/m2 administered as 1 hr infusion on day 1 and 15 measured after 28 days; format: functional, Homo sapiens, Breast cancer cell
[16] = target: T2, Kinesin-like protein KIF11; assay: Inhibition of Eg5 basal ATPase activity (unknown origin)
[17] = target: T2, Kinesin-like protein KIF11; assay: Inhibition of Eg5 assessed as inhibition of microtubule-induced ATPase activity (unknown origin)
[18] = target: T2, Kinesin-like protein KIF11; assay: Inhibition of human His-tagged Eg5 (1 to 368 amino acid residues) basal ATPase activity

Ratio IC50 [1]: > 100
IC50 [2]: 20 nM
SMILES: NCCC(=O)N1CCc2cc3c(cc2C1c1cccc(O)c1)OCO3 (centres undefined)

IC50 [3]: 30000 nM
SMILES: CCOC(=O)C1=C(C)NC(=S)NC1c1cccc(O)c1 (centres undefined) [MONASTROL]

IC50 [3]: 650 nM
SMILES: O=C1[C@@H]2Cc3c([nH]c4ccccc34)[C@@H](c3cccc(O)c3)N2C(=O)N1Cc1ccccc1

IC50 [2]: 100 nM
SMILES: CC1=C(C(=O)Nc2ccc(Cl)cc2)C(c2ccccc2)C2=C(CC(C)(C)CC2=O)N1 (centres undefined)

IC50 [3]: 6 nM
SMILES: CON(C)C(=O)N1N=C(c2cc(F)ccc2F)S[C@@]1(CCCN)c1ccccc1 [FILANESIB]

IC50 [11]: 1300 nM
SMILES: CC(=O)NC1=NN(C(C)=O)C(C)(c2ccccc2)S1 (centres undefined)

IC50 [3]: 40 nM
SMILES: CCC(c1nc2ccccc2n1Cc1ccccc1)N(CCCN(C)C)C(=O)c1ccc(Br)cc1 (centres undefined)

The remaining lines, values behind:

SMILES: N[C@@H](CSC(c1ccccc1)(c1ccccc1)c1ccccc1)C(=O)O [S-TRITYL-L-CYSTEINE]
GI50 [4]: 1300 nM

SMILES: Cc1ccc(C(=O)N(CCCN)C(c2nc3snc(C)c3c(=O)n2Cc2ccccc2)C(C)C)cc1 (single isomer, unassigned; (+)) [AZD-4877]
half-life at 672 h [5]: 16 h
half-life at 336 h (clinical): 17 h
MTD (Homo sapiens [6]): 16 mg/day
MTD (Homo sapiens [7]): 30 mg

SMILES: CC(C)(O)[C@@H]1C[C@@H](O)[C@]2(C)[C@H](CC[C@@]3(C)[C@H]2CC[C@H]2Cc4c([nH]c5ccccc45)[C@@]23C)O1 [TERPENDOLE E]
IC50 [8]: 23000 nM
IC50 [9]: 23000 nM

SMILES: O=C1CCCC2=C1[C@H](c1cccc(O)c1)NC(=S)N2
Ratio IC50 [1]: 10

SMILES: O=C(c1ccc(O)cc1)N1CCc2cc3c(cc2C1c1cccc(O)c1)OCO3 (centres undefined)
Ratio IC50 [1]: > 100
IC50 [2]: 40 nM

SMILES: Cc1ccc(C(=O)N2CCc3cc4c(cc3C2c2cccc(O)c2)OCO4)cc1 (centres undefined)
Ratio IC50 [1]: > 100
IC50 [2]: 60 nM

SMILES: Cc1ccc(C(=O)N(CCCN)[C@@H](c2oc3cc(Cl)ccc3c(=O)c2Cc2ccccc2)C(C)C)cc1 [SB-743921]
MTD (Homo sapiens [10]): 4 mg/m2

SMILES: Cc1cc2c(C(C)C)c(O)c(O)c(C=O)c2c(O)c1-c1c(C)cc2c(C(C)C)c(O)c(O)c(C=O)c2c1O [GOSSYPOL]
IC50 [2]: 10800 nM

SMILES: CS(=O)(=O)O.Cc1ccc(C(=O)N(CCCN)[C@@H](c2nc3cc(Cl)ccc3c(=O)n2Cc2ccccc2)C(C)C)cc1 [ISPINESIB MESYLATE]
MTD (Homo sapiens [12]): 12 mg/m2
MTD (Homo sapiens [13]): 18 mg/m2
half-life [14]: 33 h
Activity [15]: 9%

SMILES: CC1(C)CCC[C@]2(C)O[C@H]3CC[C@@]4(C)[C@@H](CC[C@]5(C)[C@@H]4CC[C@]4(C)c6c(OS(=O)(=O)O)ccc(OS(=O)(=O)O)c6C[C@@H]54)[C@]3(C)CC[C@@H]12 [ADOCIASULFATE-2]
IC50 [16]: 3500 nM
IC50 [17]: 5300 nM

SMILES: O=C1CCCC2=C1[C@H](c1cc(O)ccc1Br)NC(=S)N2
IC50 [18]: 350 nM
